# US20220112187A1, “PYRAZOLOPYRIDINE AMINE COMPOUNDS FOR THE TREATMENT OF AUTOIMMUNE DISEASE” (Hoffmann-La Roche Inc., priority 2018, published 2022)
# pIC50: −log10 of the molar value.
# Biological target: T1, human TLR9 (Homo sapiens, UniProt Q9NR96)
# T1 sequence (Q9NR96 26-1032): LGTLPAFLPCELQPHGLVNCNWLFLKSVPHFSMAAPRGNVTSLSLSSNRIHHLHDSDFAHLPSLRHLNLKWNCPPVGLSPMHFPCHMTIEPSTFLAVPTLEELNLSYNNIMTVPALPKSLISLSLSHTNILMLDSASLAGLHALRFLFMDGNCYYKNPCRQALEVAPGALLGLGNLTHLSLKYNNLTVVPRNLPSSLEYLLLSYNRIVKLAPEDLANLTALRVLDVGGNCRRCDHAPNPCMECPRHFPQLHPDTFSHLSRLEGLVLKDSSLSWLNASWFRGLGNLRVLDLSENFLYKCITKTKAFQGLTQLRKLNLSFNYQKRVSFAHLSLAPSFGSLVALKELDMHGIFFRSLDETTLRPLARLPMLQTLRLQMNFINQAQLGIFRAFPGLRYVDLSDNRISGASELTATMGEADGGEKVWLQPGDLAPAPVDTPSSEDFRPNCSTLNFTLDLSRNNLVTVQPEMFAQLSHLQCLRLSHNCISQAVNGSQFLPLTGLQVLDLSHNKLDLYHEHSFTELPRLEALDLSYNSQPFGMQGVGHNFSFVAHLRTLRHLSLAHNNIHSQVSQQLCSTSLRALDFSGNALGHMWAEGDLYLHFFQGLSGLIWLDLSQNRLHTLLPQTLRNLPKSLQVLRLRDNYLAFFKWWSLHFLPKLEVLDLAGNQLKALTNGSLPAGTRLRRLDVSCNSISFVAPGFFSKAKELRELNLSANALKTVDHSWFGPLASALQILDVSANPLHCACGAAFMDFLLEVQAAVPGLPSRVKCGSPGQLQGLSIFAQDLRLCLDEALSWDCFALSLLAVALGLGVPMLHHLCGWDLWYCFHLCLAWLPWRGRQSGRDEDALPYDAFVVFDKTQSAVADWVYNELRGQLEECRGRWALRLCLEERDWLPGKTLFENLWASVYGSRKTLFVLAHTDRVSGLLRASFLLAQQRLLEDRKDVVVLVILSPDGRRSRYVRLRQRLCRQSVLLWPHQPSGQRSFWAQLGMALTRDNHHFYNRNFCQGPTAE
# Assay: HEK293-Blue-hTLR-9 cells assay (SEAP reporter, ODN2006 stimulation)
# Type: cell-based
# Details: HEK293-Blue-hTLR9 cells, ODN2006 ligand, 20 hrs incubation
# In short: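 HEK293-Blue cells stimulated with ODN2006 (10 μL of 20 uM added) plus serially diluted compound, 1% DMSO final, for 20 hrs at 37° C. SEAP in supernatant measured with QUANTI-Blue after 2 hrs at 37° C, absorbance at 620-655 nm; antagonism seen as reduced reporter signal.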
row,pIC50,Structure (SMILES)
1,5.52,"C[C@@H]1CN(c2ccc(C#N)n3nccc23)C[C@H](CN2CCN(C(=O)CN)CC2)O1 [Example 14, 4-[(2S,6R)-2-[[4-(2-aminoacetyl)piperazin-1-yl]methyl]-6-methyl-morpholin-4-yl]pyrazolo[1,5-a]pyridine-7-carbonitrile]"
2,5.46,"C[C@@H]1CN(c2ccc(C#N)n3nccc23)C[C@H](CN2CCC3(CN(C)CCO3)C2)O1 (stereo partly drawn) [Example 76, 4-[(2R,6S)-2-methyl-6-[(9-methyl-6-oxa-2,9-diazaspiro[4.5]decan-2-yl)methyl]morpholin-4-yl]pyrazolo[1,5-a]pyridine-7-carbonitrile]"
